Source: US20120270848A1, “Novel Compositions and Therapeutic Methods Using Same” (Galleon Pharmaceuticals, Inc., priority 2010, published 2012)
Converted amounts (≈) assume the structure as drawn. “And” between values parts separate entries of the source, which are not always exact repeats. Equal entries are not always repeated. “Also recorded” adds a separate entry of the source.

Columns and labels:
[1] = test system: hypoxic ventilatory response in the rat; experiment: Hypoxic ventilatory response to 12% O2, plethysmography; assay type: in vivo; conditions: IV infusion (Table 5: 1, 3 mg/kg/min; text: 3 mg/kg/min), compared to vehicle
Description: Rats with a pre-cannulated jugular vein (for administrating drugs) were acclimated to plethysmography chambers for a minimum of 60 minutes, or until animals were no longer restless. Each animal was dosed with (−)-doxapram, (+)-doxapram, or racemic doxapram via infusion into the jugular vein catheter over a period of 15 minutes, at 3 mg/kg/min at 0.020 ml/min based on a 300 gram rat. After a period of 15 minutes, an isocapnic, hypoxic mixture (12% O2 balanced N2) was administered into all chambers using a gas mixer (CWE inc. GSM-3 gas mixer) for 15 minutes. After 15 minutes, the gas mixer was turned off, resulting in normal room air pumped into the chambers. Ten minutes later, the infusion pumps were turned off, and all animals were given a 15 minute recovery period, followed by a post-study analysis of rat health and behavior. […] The small increases in minute ventilation seen towards the end of the experiment in the (−)-doxapram group (i.e. T20-T55) were associated with behavioral toxicities and therefore cannot be distinguished from non-specific side effects. Results are illustrated in FIG. 5 and Table 5.

[2] = test system: spontaneously breathing rats; experiment: In vivo spirometry: cumulative dose-dependent ventilatory response (maximum peak minute ventilation); parameters: species or system rat
Description: (§1) All surgical procedures were performed under anesthesia induced by 2% isoflurane in compressed medical grade air. With rats in supine position, the right femoral vein was catheterized using polyethylene tubing (PE-50). This catheter was used for fluid and drug administration. Simultaneously, the right femoral artery was also catheterized for monitoring blood pressure. In order to measure the respiratory parameters in spontaneously breathing rats, trachea was intubated using 13 gauge tracheal tube (2.5 mm ID, Instech Solomon, Pa.).
After establishing a stable base-line at 1.5% isoflurane, cumulative dose-dependent (1, 3, 10 and 30 mg/kg) ventilatory responses to (−)-doxapram, (+)-doxapram, or racemic doxapram were generated from spontaneously breathing rats. Maximum peak minute ventilatory (MV) values at each dose from corresponding drug were calculated and used for generating ED50 values. Results are illustrated in Table 3 and FIG. 1. All the specific ventilatory stimulant activity of racemic doxapram was associated with the (+)-enantiomer.

[3] = Solubility in EtOH/MeOH for the chromatographic separation; assay type: physicochemical; conditions: organic solvent or mixture
Description: With stirring and sonication, 2.51 g of racemic doxapram were dissolved in approximately 200 mL EtOH/MeOH (50/50 v/v). The solution was injected onto the chromatographic column using the conditions illustrated above. The injection volume was 4 mL, performed every 7 minutes. The appropriate fractions collected from the chromatographic process were concentrated using rotary evaporators at 40° C. and 50 mbar. After solvent removal, the products were dried in a vacuum oven at 40° C. to obtain (−)-doxapram (1.19 g, 95% yield, ?99% e.e.) and (+)-doxapram (1.34 g, 107% yield, ≧99% e.e.). The experimental recovery of (+)-doxapram may have been high due to residual DMEA in the system.
A sample of 19.94 g of racemic doxapram was dissolved in approximately 1.0 L of EtOH/MeOH 80/20 (v/v) with stirring and sonication. The injection volume was 4 mL, and injection was performed every 5.83 min. The appropriate fractions collected from the chromatographic process were concentrated using rotary evaporators at 40° C. and 50 mbar. After solvent removal, the products were dried in a vacuum oven at 40° C. to obtain (−)-doxapram (8.47 g, 85% yield, ≧99% e.e.) and (+)-doxapram (12.50 g, 125% yield, ≧99% e.e.). The experimental recovery of (+)-doxapram may have been high due to residual DMEA in the system.

[4] = test system: opioid-induced respiratory depression in the rat; experiment: Opioid-induced changes in arterial blood gas parameters, arterial blood gas analysis; assay type: in vivo; conditions: for Arterial Blood Gases - OIRD, pCO2 (mmHg) and saO2 (%): reversal of opioid-induced respiratory depression: 3 mg/kg/min IV infusion after 10 mg/kg IV morphine, compared to vehicle; for PaCO2: % reversal / PaO2: % reversal / pH % reversal / saO2: % reversal: 3.0 mpk/min IV infusion after morphine 10 mg/kg, vs composite vehicle group, 15 min into 20 min infusion
Description: Rats with pre-cannulated jugular vein and femoral arterial catheters (for administrating drugs and obtaining blood samples respectively) were obtained from Harlan laboratories and kept at the animal facility at Galleon Pharmaceuticals until the experimental procedures. All animals experiments were carried out according to the US law on animals care and use approved by Galleon Pharmaceuticals IACUC. Each animal was dosed with morphine sulfate (10 mg/kg), dissolved in saline at a concentration of 10 mg/ml, via injection into the jugular vein over a period of 20 seconds with a 20 second flush of 0.9% NaCl saline. Prior to morphine administration, two 250 μL samples of arterial blood were aspirated from the femoral artery into a pre-heparinized syringe. The samples were analyzed on Radiometer's ABL Flex 800, where pO2, pCO2, pH, saO2 and other parameters were recorded. Aspirated volumes of arterial blood were replaced by room temperature sterile saline (˜300 μL) slowly flushed back into the femoral arterial catheter of the rodent to prevent anemia and/or dehydration. Morphine was then administered and 2 minutes later another blood sample was taken. After a period of 5 min from the administration of morphine, (−)-doxapram, (+)-doxapram or racemic doxapram (15 mg/mL) was administered via infusion into the jugular vein at a rate of 60 μL/min/300 gram rat. The infusion started at t=15 minutes and ended at t=35 minutes. Arterial blood gas analysis occurred at time points t=17, 25, 30, 37, 45, and 50 minutes. […] The small improvements in blood gas parameters seen towards the end of the experiment in the (−)-doxapram group were associated with behavioral toxicities and therefore cannot be distinguished from non-specific side effects. Results are illustrated in Table 4 and FIGS. 3-4.

[5] = Comparative IV pharmacokinetics of a 20 min infusion; assay type: in vivo; conditions: 20 min infusion of 3 mg/kg/min IV
Description: FIG. 9 is a set of graphs illustrating the IV pharmacokinetics of a 20-minute infusion (from 15 minutes to 35 minutes) of 3 mg/kg/min IV (+)-doxapram and (−)-doxapram. The upper panel pharmacokinetic data was plotted on a linear y-axis, the lower panel represents the same data plotted on a log y-axis.
The difference in efficacy and adverse events seen between the enantiomers is therefore due to genuine differences in the intrinsic pharmacodynamics (i.e. pharmacology and side effects profiles) of the enantiomers, as opposed to differential exposures/pharmacokinetics. Results are illustrated in FIG. 9.

[6] = test system: opioid-induced respiratory depression in the rat; experiment: Opioid-induced respiratory depression, plethysmography (minute ventilation); assay type: in vivo; conditions: 1, 3 mg/kg/min IV infusion after 10 mg/kg IV morphine; compared to vehicle
Description: All animal experiments were carried out according to the US law on animals care and use approved by Galleon Pharmaceuticals Institutional Animal Care and Use Committee (IACUC). Rats with pre-cannulated jugular vein (for administrating drugs) were acclimated to plethysmography chambers for a minimum of 60 minutes, or until animals were no longer restless. Each animal was dosed with morphine sulfate (10 mg/kg), dissolved in sterile water at a concentration of 10 mg/mL (supplied by Baxter Healthcare Corporation), via injection into the jugular vein catheter over a period of 5-10 seconds. After a period of 5 min, (−)-doxapram, (+)-doxapram, or racemic doxapram ([…]) was administered via infusion into the jugular vein at a rate of 0.020 mL/min for a 300 gram rat. Behavioral observations were made though the course of the experiment. After 20 min of infusion at 1 mg/kg/min, the infusion rates were tripled from 0.020 mL/min to 0.060 mL/min for all rats, based on body weight. After 20 minutes of infusion at this dose, the infusion pumps were turned off, and all animals were given a 20 minute recovery period, followed by a post-study analysis of rat health and behavior. […] The small increase in minute ventilation seen towards the end of the experiment in the (−)-doxapram group was associated with behavioral toxicities and therefore cannot be distinguished from non-specific side effects. […]

rat = experiment: Cardio-respiratory traces after IV bolus (respiratory flow, volumes, minute ventilation, blood pressure); assay type: in vivo; conditions: for effect on arterial blood pressure and arrhythmias / effect on respiratory flow, inspiratory and expiratory volume, minute ventilation: 30 mg/kg IV bolus
Description: as §1
The procedure outlined in Example 1 was used herein. […] Results are illustrated in FIG. 6.
The procedure described in Example 1 was used herein to evaluate the effect of (−)-doxapram on mean arterial blood pressure (MAP) in the rat. […] Results are illustrated in FIG. 8.

rats = experiment: Observations of animal behavior and adverse effects; assay type: in vivo, rat; conditions: for Death (animals out of group of 6): 30 mg/kg IV bolus, 30 mg/kg; for Clonic movements (animals out of group of 6) / Hunching, static, increased urination & defecation (animals out of group of 6): 3 mg/kg
From the text: In Examples 1-7 described above, all rats are observed for behavioral changes and adverse effects, as recognized by those skilled in the art. Such effects include central nervous system and motor effects such as impairment, sedation, and convulsive potential, and mortality. Other effects related to bodily functions are also observable and may include changes in breathing, urination, defecation, posture, and normal cage activities (i.e., grooming, exploring, eating, etc.). […]

[7] = ventilatory stimulant activity, rat IV
[8] = IV bolus, cumulative doses 1, 3, 10 and 30 mg/kg, 1.5% isoflurane, maximum peak MV values

Compound	Plethysmography (MV), Naïve and HVR: potentiation of hypoxic ventilatory response [1]	Arterial Blood Gases - OIRD, pCO2 (mmHg) and saO2 (%): reversal of opioid-induced respiratory depression [4]	PaCO2: % reversal [4] [%]	PaO2: % reversal [4] [%]	pH % reversal [4] [%]	saO2: % reversal [4] [%]	plasma exposure (time course, maximum concentration, AUC, washout), enantiomer vs enantiomer [5]	Plethysmography - OIRD (MV): reversal of opioid-induced respiratory depression [6]	effect on arterial blood pressure and arrhythmias (rat)	effect on respiratory flow, inspiratory and expiratory volume, minute ventilation (rat)	Death (animals out of group of 6) (rats; Pleth.)	ED50 (mg/kg IV), increase in minute ventilation (MV) [2, 8]	further results
CCN1CC(CCN2CCOCC2)C(c2ccccc2)(c2ccccc2)C1=O (racemic) [doxapram, 1-ethyl-4-(2-morphilinoethyl)-3,3-diphenyl-2-pyrrolidinone, reference compound]	significantly potentiated the hypoxic ventilatory response	significantly reverse opioid-induced respiratory depression	90	22	58	33	–	–	–	–	–	–	ED50 ([2]; Rattus norvegicus, IV bolus, cumulative doses 1, 3, 10 and 30 mg/kg, 1.5% isoflurane, maximum peak MV values, read-out: ED50 (mg/kg IV), increase in minute ventilation (MV)): 4.8 mg/kg; potency relative to (+)-enantiomer [2, 7]: approximately 50%; solubility ([3]; in EtOH/MeOH 80/20 (v/v)): 19.9 mg/mL (≈ 52.6 mM); solubility ([3]; in EtOH/MeOH (50/50 v/v)): 12.6 mg/mL (≈ 33.3 mM)
CCN1CC(CCN2CCOCC2)C(c2ccccc2)(c2ccccc2)C1=O (single isomer, unassigned; (+)) [(+)-doxapram, (+)-enantiomer of 1-ethyl-4-(2-morphilinoethyl)-3,3-diphenyl-2-pyrrolidinone]	significantly potentiated the hypoxic ventilatory response; also recorded: Active	significantly reverse opioid-induced respiratory depression; also recorded: Active	79	41	49	41	directly comparable time course, maximum concentration and exposure (AUC)	significantly reverses opioid-induced respiratory depression; also recorded: Active	only a minimal reduction in blood pressure without associated arrhythmias	increased respiratory flow, inspiratory and expiratory volume, as well as enhanced minute ventilation	0/6	2.2 mg/kg and 2.1 mg/kg	Cardiopulmonary response: mean arterial pressure (MAP) (rat; E-Phys, ≧10 mg/kg IV bolus): MAP ↓; adverse effects across the studies (rats; rat, in vivo, iv): did not; Clonic movements (animals out of group of 6) (rats; rat, in vivo, iv): 0/6; Hunching, static, increased urination & defecation (animals out of group of 6) (rats; rat, in vivo, iv): 0/6
CCN1CC(CCN2CCOCC2)C(c2ccccc2)(c2ccccc2)C1=O (single isomer, unassigned; (-)) [(−)-doxapram]	did not; also recorded: Not active	does not; also recorded: Not active	24	−2	−8	−6	directly comparable time course, maximum concentration and exposure (AUC)	does not; also recorded: Not active	pronounced reduction in arterial blood pressure together with a period of associated arrhythmias; also recorded: pronounced drop in blood pressure in rat, including a period of heart arrhythmias	only a minimal effect on respiratory flow, inspiratory and expiratory volume, and minute ventilation; also recorded: minimal ventilatory response	5/6	>200 mg/kg	Cardiopulmonary response: arrhythmias (rat; E-Phys, ≧10 mg/kg IV bolus): Arrhythmias; Cardiopulmonary response: mean arterial pressure (MAP) (rat; E-Phys, ≧10 mg/kg IV bolus, 10 mg/kg): MAP ↓↓; Clonic movements (animals out of group of 6) (rats; ABG post morphine, 3 mg/kg/min IV): 5/6; Hunching, static, increased urination & defecation (animals out of group of 6) (rats; Pleth., 3 mg/kg/min IV): 6/6; adverse effects across the studies (rats; at the doses tested, IV): consistently produced a variety of adverse effects; potency vs (+)-enantiomer (times less potent) [2, 7]: at least 100 times
